Reference: the supplement of paper PMC10307832

Legend:
Test in all cases: relative viability (nuclei count vs DMSO), 5 days (fraction); higher = more cells survive
NCI-H1734 = test system: NCI-H1734
Outline: (§1)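 Nuclei were stained with Hoechst during a one-step fixation (final 0.05% Triton X-100, 1% formaldehyde, 1 ug/ml Hoechst) carried out 5 days after dosing, then counted on 4× images. The cells, lung cancer lines in 1536-well plates, had been dosed by pin tool the day after seeding with one drug alone or a fixed anchor-drug dose plus five library-drug doses (not always all listed) in √10 steps. Relative viability is the nuclei count in treated wells divided by that in vehicle wells, and each value is the median of duplicate plates.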

LC-2-ad = test system: LC-2-ad
Outline: as §1

BEN = test system: BEN
Outline: as §1

NCI-H2170 = test system: NCI-H2170
Outline: as §1

NCI-H1437 = test system: NCI-H1437
Outline: as §1

HCC-366 = test system: HCC-366
Outline: as §1

NCI-H596 = test system: NCI-H596
Outline: as §1

NCI-H647 = test system: NCI-H647
Outline: as §1

HCC-44 = test system: HCC-44
Outline: as §1

NCI-H1792 = test system: NCI-H1792
Outline: as §1

HARA = test system: HARA
Outline: as §1

NCI-H1395 = test system: NCI-H1395
Outline: as §1

HCC-827 = test system: HCC-827
Outline: as §1

NCI-H661 = test system: NCI-H661
Outline: as §1

NCI-H2009 = test system: NCI-H2009
Outline: as §1

NCI-H2342 = test system: NCI-H2342
Outline: as §1

LOU-NH91 = test system: LOU-NH91
Outline: as §1

NCI-H2087 = test system: NCI-H2087
Outline: as §1

NCI-H2405 = test system: NCI-H2405
Outline: as §1

SK-MES-1 = test system: SK-MES-1
Outline: as §1

NCI-H1355 = test system: NCI-H1355
Outline: as §1

SK-LU-1 = test system: SK-LU-1
Outline: as §1

EKVX = test system: EKVX
Outline: as §1

NCI-H2228 = test system: NCI-H2228
Outline: as §1

`COc1cc(N2CCC(C(N)=O)CC2)ccc1Nc1nc(N)c(Cl)c(Nc2ccccc2S(=O)(=O)C(C)C)n1` [HG-5-88-01] + O=C(c1cc(Cc2n[nH]c(=O)c3ccccc23)ccc1F)N1CCN(C(=O)C2CC2)CC1 [Olaparib] (partner 8 µM) showed a relative viability (NCI-H1734; first compound 0.04 µM) of 0.681, a relative viability (NCI-H1734; first compound 0.1265 µM) of 0.583 and a relative viability (NCI-H1734; first compound 0.4 µM) of 0.642. For the same compound, the relative viability (NCI-H1734; first compound 1.265 µM) was 0.54, the relative viability (NCI-H1734; first compound 4 µM) was 0.558 and the relative viability (LC-2-ad; first compound 0.04 µM) was 0.691. For the same compound, the relative viability (LC-2-ad; first compound 0.1265 µM) was 0.692, the relative viability (LC-2-ad; first compound 0.4 µM) was 0.725 and the relative viability (LC-2-ad; first compound 1.265 µM) was 0.692. For the same compound, the relative viability (LC-2-ad; first compound 4 µM) was 0.721, the relative viability (BEN; first compound 0.04 µM) was 1.2 and the relative viability (BEN; first compound 0.1265 µM) was 1.16. For the same compound, the relative viability (BEN; first compound 0.4 µM) was 1.13, the relative viability (BEN; first compound 1.265 µM) was 0.683 and the relative viability (BEN; first compound 4 µM) was 0.993. For the same compound, the relative viability (NCI-H2170; first compound 0.04 µM) was 0.64, the relative viability (NCI-H2170; first compound 0.1265 µM) was 0.669 and the relative viability (NCI-H2170; first compound 0.4 µM) was 0.605. It also gave a relative viability (NCI-H2170; first compound 1.265 µM) of 0.53, a relative viability (NCI-H2170; first compound 4 µM) of 0.545 and a relative viability (NCI-H1437; first compound 0.04 µM) of 0.645. For the same compound, the relative viability (NCI-H1437; first compound 0.1265 µM) was 0.609, the relative viability (NCI-H1437; first compound 0.4 µM) was 0.607 and the relative viability (NCI-H1437; first compound 1.265 µM) was 0.631. The relative viability (NCI-H1437; first compound 4 µM) was 0.557, the relative viability (HCC-366; first compound 0.04 µM) was 0.385 and the relative viability (HCC-366; first compound 0.1265 µM) was 0.391. For the same compound, the relative viability (HCC-366; first compound 0.4 µM) was 0.352, the relative viability (HCC-366; first compound 1.265 µM) was 0.39 and the relative viability (HCC-366; first compound 4 µM) was 0.38. For the same compound, the relative viability (NCI-H596; first compound 0.04 µM) was 0.729, the relative viability (NCI-H596; first compound 0.1265 µM) was 0.734 and the relative viability (NCI-H596; first compound 0.4 µM) was 0.682. The relative viability (NCI-H596; first compound 1.265 µM) was 0.777, the relative viability (NCI-H596; first compound 4 µM) was 0.694 and the relative viability (NCI-H647; first compound 0.04 µM) was 0.552. It also gave a relative viability (NCI-H647; first compound 0.1265 µM) of 0.553, a relative viability (NCI-H647; first compound 1.265 µM) of 0.667 and a relative viability (NCI-H647; first compound 4 µM) of 0.738. The relative viability (HCC-44; first compound 0.04 µM) was 0.912, the relative viability (HCC-44; first compound 0.1265 µM) was 0.957 and the relative viability (HCC-44; first compound 0.4 µM) was 0.934. It also gave a relative viability (HCC-44; first compound 1.265 µM) of 0.921, a relative viability (HCC-44; first compound 4 µM) of 0.919 and a relative viability (NCI-H1792; first compound 0.04 µM) of 0.513. For the same compound, the relative viability (NCI-H1792; first compound 0.1265 µM) was 0.424, the relative viability (NCI-H1792; first compound 0.4 µM) was 0.434 and the relative viability (NCI-H1792; first compound 1.265 µM) was 0.397. For the same compound, the relative viability (NCI-H1792; first compound 4 µM) was 0.484, the relative viability (HARA; first compound 0.04 µM) was 1.07 and the relative viability (HARA; first compound 0.1265 µM) was 1.02. It also gave a relative viability (HARA; first compound 0.4 µM) of 0.456, a relative viability (HARA; first compound 1.265 µM) of 0.526 and a relative viability (HARA; first compound 4 µM) of 0.862. It also gave a relative viability (NCI-H1395; first compound 0.04 µM) of 0.499, a relative viability (NCI-H1395; first compound 0.1265 µM) of 0.467 and a relative viability (NCI-H1395; first compound 0.4 µM) of 0.48. It also gave a relative viability (NCI-H1395; first compound 1.265 µM) of 0.472, a relative viability (NCI-H1395; first compound 4 µM) of 0.487 and a relative viability (HCC-827; first compound 0.04 µM) of 0.695. It also gave a relative viability (HCC-827; first compound 0.1265 µM) of 0.676, a relative viability (HCC-827; first compound 0.4 µM) of 0.363 and a relative viability (HCC-827; first compound 1.265 µM) of 0.203. It also gave a relative viability (HCC-827; first compound 4 µM) of 0.24, a relative viability (NCI-H661; first compound 0.04 µM) of 0.707 and a relative viability (NCI-H661; first compound 0.1265 µM) of 0.779. The relative viability (NCI-H661; first compound 0.4 µM) was 0.8, the relative viability (NCI-H661; first compound 1.265 µM) was 0.716 and the relative viability (NCI-H661; first compound 4 µM) was 0.845. The relative viability (NCI-H2009; first compound 0.04 µM) was 0.684, the relative viability (NCI-H2009; first compound 0.1265 µM) was 0.651 and the relative viability (NCI-H2009; first compound 0.4 µM) was 0.687. It also gave a relative viability (NCI-H2009; first compound 1.265 µM) of 0.685, a relative viability (NCI-H2009; first compound 4 µM) of 0.684 and a relative viability (NCI-H2342; first compound 0.04 µM) of 0.449. For the same compound, the relative viability (NCI-H2342; first compound 0.1265 µM) was 0.538, the relative viability (NCI-H2342; first compound 0.4 µM) was 0.473 and the relative viability (NCI-H2342; first compound 4 µM) was 0.474. For the same compound, the relative viability (LOU-NH91; first compound 0.04 µM) was 0.861, the relative viability (LOU-NH91; first compound 0.1265 µM) was 0.882 and the relative viability (LOU-NH91; first compound 0.4 µM) was 0.733. It also gave a relative viability (LOU-NH91; first compound 1.265 µM) of 0.514, a relative viability (LOU-NH91; first compound 4 µM) of 0.618 and a relative viability (NCI-H2087; first compound 0.04 µM) of 0.557. The relative viability (NCI-H2087; first compound 0.1265 µM) was 0.645, the relative viability (NCI-H2087; first compound 0.4 µM) was 0.585 and the relative viability (NCI-H2087; first compound 1.265 µM) was 0.536. It also gave a relative viability (NCI-H2087; first compound 4 µM) of 0.502, a relative viability (NCI-H2405; first compound 0.04 µM) of 0.885 and a relative viability (NCI-H2405; first compound 0.1265 µM) of 0.904. The relative viability (NCI-H2405; first compound 0.4 µM) was 0.807, the relative viability (NCI-H2405; first compound 1.265 µM) was 0.524 and the relative viability (NCI-H2405; first compound 4 µM) was 0.75. It also gave a relative viability (SK-MES-1; first compound 0.04 µM) of 0.657, a relative viability (SK-MES-1; first compound 0.1265 µM) of 0.658 and a relative viability (SK-MES-1; first compound 0.4 µM) of 0.689. The relative viability (SK-MES-1; first compound 1.265 µM) was 0.508, the relative viability (SK-MES-1; first compound 4 µM) was 0.564 and the relative viability (NCI-H1355; first compound 0.04 µM) was 0.833. The relative viability (NCI-H1355; first compound 0.1265 µM) was 0.768, the relative viability (NCI-H1355; first compound 0.4 µM) was 0.74 and the relative viability (NCI-H1355; first compound 1.265 µM) was 0.706. For the same compound, the relative viability (NCI-H1355; first compound 4 µM) was 0.584, the relative viability (SK-LU-1; first compound 0.04 µM) was 0.447 and the relative viability (SK-LU-1; first compound 0.1265 µM) was 0.442. It also gave a relative viability (SK-LU-1; first compound 0.4 µM) of 0.444, a relative viability (SK-LU-1; first compound 1.265 µM) of 0.417 and a relative viability (SK-LU-1; first compound 4 µM) of 0.295. For the same compound, the relative viability (EKVX; first compound 0.04 µM) was 0.896, the relative viability (EKVX; first compound 0.1265 µM) was 0.955 and the relative viability (EKVX; first compound 0.4 µM) was 0.813. It also gave a relative viability (EKVX; first compound 4 µM) of 0.633, a relative viability (NCI-H2228; first compound 0.04 µM) of 0.538 and a relative viability (NCI-H2228; first compound 0.1265 µM) of 0.36. It also gave a relative viability (NCI-H2228; first compound 0.4 µM) of 0.424, a relative viability (NCI-H2228; first compound 1.265 µM) of 0.227 and a relative viability (NCI-H2228; first compound 4 µM) of 0.253.
